How the values were obtained:
Experiment in all cases: relative viability (nuclei count vs DMSO), 5 days (fraction); higher = more cells survive
[1] = compound: O=C(CCCCCCNC(=O)c1cnc(N(c2ccccc2)c2ccccc2)nc1)NO [Ricolinostat] + CC(=O)Nc1cccc(-n2c(=O)n(C3CC3)c(=O)c3c(Nc4ccc(I)cc4F)n(C)c(=O)c(C)c32)c1 [Trametinib] (partner 0.02 µM)
Outline: (§1)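 Relative viability equals treated-well nuclei counts divided by vehicle-well nuclei counts. Counts came from 4× images of lung cancer cell lines grown in 1536-well plates for 5 days after pin-tool dosing on the day after seeding. Dosing used one drug alone or a fixed anchor-drug dose plus five library-drug doses (not always all listed) in √10 steps, and values are medians of duplicate plates.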

[2] = compound: O=C(CCCCCCNC(=O)c1cnc(N(c2ccccc2)c2ccccc2)nc1)NO [Ricolinostat] + NC(=O)Nc1cc(-c2cccc(F)c2)sc1C(=O)N[C@H]1CCCNC1 [AZD7762] (partner 0.2 µM)
Outline: as §1

[3] = compound: O=C(CCCCCCNC(=O)c1cnc(N(c2ccccc2)c2ccccc2)nc1)NO [Ricolinostat] + CC(=O)c1c(C)c2cnc(Nc3ccc(N4CCNCC4)cn3)nc2n(C2CCCC2)c1=O [Palbociclib] (partner 0.5 µM)
Outline: as §1

[4] = compound: C1=CC=C(C(=C1)C2=CC=C(C=C2)C3=CSC4=C3C(=C(C(=O)N4)C#N)O)O + CS(=O)(=O)N1CCN(Cc2cc3nc(-c4cccc5[nH]ncc45)nc(N4CCOCC4)c3s2)CC1 [Pictilisib] (partner 1 µM)
Outline: as §1

Cell Line | relative viability ([1]; first compound 0.08 µM) | relative viability ([1]; first compound 0.253 µM) | relative viability ([1]; first compound 0.8 µM) | relative viability ([1]; first compound 2.53 µM) | relative viability ([2]; first compound 0.08 µM) | relative viability ([2]; first compound 0.253 µM) | relative viability ([2]; first compound 0.8 µM) | relative viability ([2]; first compound 2.53 µM) | relative viability ([3]; first compound 0.08 µM) | relative viability ([3]; first compound 0.253 µM) | relative viability ([3]; first compound 0.8 µM) | relative viability ([3]; first compound 2.53 µM) | relative viability ([4]; first compound 0.08 µM) | relative viability ([4]; first compound 0.253 µM) | relative viability ([4]; first compound 0.8 µM) | relative viability ([4]; first compound 2.53 µM) | relative viability ([4]; first compound 8 µM)
PC-3 [JPC-3] | 0.662 | 0.641 | 0.713 | 0.633 | 0.54 | 0.695 | 0.679 | 0.665 | 0.533 | 0.499 | 0.518 | 0.487 | 0.69 | 0.888 | 0.665 | 0.685 | 0.652
HCC-44 | 1.11 | 1.02 | 1.02 | 1.04 | 1.05 | 0.972 | 0.993 | 1.05 | 0.91 | 0.935 | 1.01 | 0.964 | 0.549 | 0.717 | 0.601 | 0.556 | 0.605
CAL-12T | 0.266 | 0.32 | 0.456 | 0.395 | 0.496 | 0.602 | 0.56 | 0.489 | 0.443 | 0.464 | 0.413 | 0.43 |  | 0.446 | 0.359 | 0.337 | 0.367
ChaGo-K-1 | 0.894 | 0.865 | 0.848 | 0.802 | 0.842 | 0.901 | 0.862 | 0.798 | 0.93 | 0.947 | 0.901 | 0.837 | 0.387 | 0.634 | 0.554 | 0.747 | 0.829
NCI-H2126 | 0.531 | 0.548 | 0.564 | 0.52 | 0.865 | 1.04 | 0.971 | 0.887 | 0.347 | 0.347 | 0.353 | 0.363 | 0.455 | 0.498 | 0.478 | 0.515 | 0.503
HCC-827 | 0.49 | 0.527 | 0.581 | 0.584 | 0.171 | 0.223 | 0.167 | 0.219 | 0.335 | 0.548 | 0.487 | 0.573 | 1.11 | 1.05 | 0.819 | 0.996 | 0.986
LCLC-97TM1 | 0.195 | 0.182 | 0.25 | 0.287 |  | 0.378 | 0.265 | 0.34 | 0.198 | 0.202 | 0.232 | 0.212 | 0.168 | 0.284 | 0.198 | 0.2 | 0.176
HCC-15 | 0.352 | 0.397 | 0.379 | 0.333 | 1.09 | 1.11 | 1.37 | 1.29 | 0.779 | 0.739 | 0.685 | 0.606 | 0.777 | 0.767 | 0.734 | 0.74 | 0.777
NCI-H727 | 0.383 | 0.416 | 0.412 | 0.355 | 0.475 | 0.711 | 0.664 | 0.576 | 0.645 | 0.627 | 0.705 | 0.683 | 0.376 | 0.407 | 0.427 | 0.353 | 0.308
NCI-H2170 | 0.921 | 0.879 | 0.985 | 0.973 | 0.815 | 0.858 | 1.01 | 0.928 | 0.388 | 0.405 | 0.385 | 0.354 | 0.337 | 0.304 | 0.273 | 0.3 | 0.358
201T | 0.713 | 0.709 | 0.689 | 0.772 | 0.607 | 0.657 | 0.645 | 0.541 | 0.362 | 0.356 | 0.36 | 0.369 | 0.646 | 0.697 | 0.652 | 0.584 | 0.846
NCI-H838 | 0.495 | 0.546 | 0.548 | 0.375 | 0.827 | 0.941 | 0.963 | 0.958 | 0.202 | 0.262 | 0.182 | 0.235 | 0.329 | 0.49 | 0.367 | 0.367 | 0.403
NCI-H1915 | 0.261 | 0.31 | 0.309 | 0.3 | 0.652 | 0.653 | 0.685 | 0.573 | 0.488 | 0.521 | 0.474 | 0.419 | 0.926 | 1.05 | 0.784 | 0.927 | 0.884
LCLC-103H | 0.632 | 0.599 | 0.685 | 0.77 | 0.694 | 0.754 | 0.749 | 0.626 | 0.472 | 0.413 | 0.495 | 0.514 | 0.544 | 0.664 | 0.541 | 0.554 | 0.576
NCI-H2347 | 0.298 | 0.304 | 0.276 | 0.459 | 0.57 | 0.718 | 0.665 | 0.478 | 0.487 | 0.371 | 0.294 | 0.408 | 0.624 | 0.609 | 0.496 | 0.626 | 0.454
NCI-H1355 | 0.411 | 0.43 | 0.346 | 0.412 | 0.689 | 0.853 | 0.674 | 0.575 | 0.373 | 0.367 | 0.31 | 0.402 | 0.478 | 0.541 | 0.416 | 0.325 | 0.447
LXF-289 | 0.675 | 0.638 | 0.688 | 0.629 | 1.07 | 1.07 | 1.11 | 1.06 | 0.618 | 0.552 | 0.599 | 0.609 | 0.677 | 0.831 | 0.781 | 0.81 | 0.779
NCI-H2085 |  | 0.491 | 0.516 | 0.513 |  | 0.912 | 0.934 | 0.784 |  | 0.461 | 0.426 | 0.478 | 0.414 | 0.517 | 0.528 | 0.418 | 0.399
EMC-BAC-2 | 0.809 | 0.895 | 0.819 | 0.74 | 1.01 | 1.03 | 0.968 | 0.557 | 0.525 | 0.496 | 0.47 | 0.405 | 0.526 | 0.516 | 0.562 | 0.544 | 0.477
